The conditions of data set [1]: commercially available topical treatment of onychomycosis; cited from earlier work.
The conditions of data set [2]: for NaOM in 50 μL sample: 0.1 g nail pieces incubated 24 h at room temperature, extracted in 1 mL water for 24 h; for NaOM conc in sample: Extracting Solution. As to the method: These studies measured the penetration of stock solutions of sodium omadine in human fingernails. Sodium omadine (NaOM) 98% was obtained from Acros Organics, a division of Global Fisher Scientific.
Stock Solution #1. Dissolved 100 mg of NaOM in 100 mL of purified water (1.0 mg/mL).
Stock Solution #2. Diluted 2 mL of Stock Solution #1 to 100 mL of purified water (20 μg/mL).
Standard Solution #1 (2.50 μg/mL). Diluted 12.5 mL of Stock Solution #2 to 100 mL with purified water.
Standard Solution #2 (5.00 μg/mL). Diluted 25 mL of Stock Solution #2 to 100 mL with purified water.
Standard Solution #3 (7.50 μg/mL). Diluted 37.5 mL of Stock Solution #2 to 100 mL with purified water.
Standard Solution #4 (10.0 μg/mL). Diluted 50 mL of Stock Solution #2 to 100 mL with purified water.
Standard Solution #5 (20.0 μg/mL). No dilution was necessary, same as Stock Solution #2.
Nail clips, pooled from six human volunteers were cut into small pieces of approximately 0.5-1 mm×2-3 mm. The nail pieces, 0.1 g, were placed in each of the above solutions at room temperature and incubated for twenty-four hours. After incubation, the pieces were washed quickly three times with purified water to remove any residual solution on the nail surface. The pieces were then incubated in 1 mL of purified water for twenty-four hours at room temperature to extract the NaOM absorbed into the nail bed (“Extracting Solution”).
A standard curve of NaOM was made by measuring the absorption at 318 nm for a 500 μL sample containing 0.25, 0.50, 0.75, 1.0, and 2.0 μg of NaOM. An aliquot (50 μL) of each Standard Solution (#1-#5) was diluted to 500 μL with 1 mM cupric chloride (CuCl2). The standard solutions were freshly prepared and incubated at room temperature for fifteen minutes prior to spectrophotometric determination.
The amount of NaOM in each sample of Extracting Solution was determined at 318 nm. Similarly, a 50 μL aliquot of each Extracting Solution was diluted to 500 μL with 1 mM CuCl2 and incubated at room temperature for 15 minutes. The amount of NaOM in each sample of Extracting Solution was then determined at 318 nm by spectrophotometry. The concentration of the NaOM adsorbed into the nail was determined from the standard curve.

Data set [3] in a line: Penetration of hydroxypyridine-2-thione zinc (PT) into minced human fingernail clips (incubation, 30% DMSO extraction, absorption at 318 nm). It is filed as in vitro ADME. On the procedure: These studies measured the penetration of stock solutions of hydroxypyridine-2-thione zinc (PT) in human fingernails.
PT was dissolved in 100% DMSO at a concentration of 2 mg/mL to form a PT stock solution. PT working solution was made by mixing 300 μL of the PT stock solution with 700 μL of water. The final concentration was 0.6 mg/mL (30% DMSO). The nail pieces (0.1 g) were incubated in 1 mL of PT working solution overnight at room temperature. After incubation, the pieces were washed with water three times in a spin column. The pieces were then incubated in 200 μL of 30% DMSO to extract PT for 4 hours at room temperature (“Extracting Solution”).
A standard curve of PT was established by measuring the absorption at 318 nm in 500 μL samples of 30% DMSO containing 0.25, 0.5, 0.75, 1, and 2 μg PT. Standard solutions and subsequent dilutions were prepared as above. The solutions in their desired concentrations were then incubated at room temperature for 5 min prior to spectrophotometric determination.

Setting [4] is: 0.6 mg/mL PT working solution (30% DMSO), 0.1 g nail incubated overnight, extracted in 200 μL of 30% DMSO for 4 h.

Like-named read-outs stand apart in the source and are kept apart here.

As for `Cc1cc(C2CCCCC2)n(O)c(=O)c1` [Ciclopirox, ciclopirox], in data set [1], the “penetration across the layers of the nail (in words)” value was “poor penetration”.

Regarding `[Na+].[O-][n+]1ccccc1[S-]` [NaOM, Sodium omadine], the “NaOM in 0.1 g nail” value in data set [2] (Wk Sol Conc 0.01 mg/mL) came to 1.02 µg; in data set [2] (Wk Sol Conc 0.05 mg/mL), 2.10 µg; in data set [2] (Wk Sol Conc 0.1 mg/mL), 3.99 µg. Besides, the results for the “NaOM in 50 μL sample” value in data set [2] (Wk Sol Conc 0.01 mg/mL), in data set [2] (Wk Sol Conc 0.05 mg/mL) and in data set [2] (Wk Sol Conc 0.1 mg/mL) were 0.34 µg, 0.70 µg and 1.33 µg, respectively. Besides, the “NaOM conc in sample” value in data set [2] (Wk Sol Conc 0.01 mg/mL) turned out to be 7 µg/mL; in data set [2] (Wk Sol Conc 0.05 mg/mL), 14 µg/mL; in data set [2] (Wk Sol Conc 0.1 mg/mL), 27 µg/mL.

Turning to `[O-]n1ccccc1=S.[O-]n1ccccc1=S.[Zn+2]` [PT, hydroxypyridine-2-thione zinc], in data set [3] (setting [4]), the “concentration of PT in Extracting Solution” value was found to be 23000 ng/mL and the “concentration of PT in Extracting Solution (per 50 μL aliquot)” value is reported as 1.15 μg/50 μL. Moreover, the “penetration into fingernails (conclusion in words)” value in data set [3] (twelve hours or less incubation time) is “significant penetration”.
